In patent publication US20150246902A1, “SUBSTITUED BENZOFURAN COMPOUNDS AND METHODS OF USE THEREOF FOR THE TREATMENT OF VIRAL DISEASES” (priority 2011, published 2015):
pIC50: −log10 of the molar value.

Experiments:
HCV replicon genotype 1a = assay: microbe, parasite or virus in culture; assay type: cell-based; conditions: Hepatitis C virus, 96 h, HCV genotype 1a replicon cells, 96 hours incubation, NS3/4A ELISA readout
HCV replicon genotype 1b = assay: microbe, parasite or virus in culture; assay type: cell-based; conditions: Hepatitis C virus, 96 h, HCV genotype 1b replicon cells, 96 hours incubation, NS3/4A ELISA readout

SMILES | pIC50 (HCV replicon genotype 1a) | pIC50 (HCV replicon genotype 1b)
CNC(=O)c1c(-c2ccc(F)cc2)oc2cc(N(C)S(C)(=O)=O)c(-c3cc(OC)c4nc(N)n(-c5cc(F)cc(F)c5)c4c3)cc12 [Compound 78, 5-(2-amino-1-(3,5-difluorophenyl)-4-methoxy-1H-benzo[d]imidazol-6-yl)-2-(4-fluorophenyl)-N-methyl-6-(N-methylmethylsulfonamido)benzofuran-3-carboxamide] | 7.72 | 8.28
CNC(=O)c1c(-c2ccc(F)cc2)oc2cc(N(C)S(C)(=O)=O)c(-c3ccc4c(ccn4-c4ccccc4)c3)cc12 [Compound 53] | 7.09 | 7.90
CNC(=O)c1c(-c2ccc(F)cc2)oc2cc(N(C)S(C)(=O)=O)c(-c3ccc4nnc(-c5ccc(C(F)(F)F)cc5)n4n3)cc12 [Compound 96, 2-(4-fluorophenyl)-N-methyl-6-(N-methylmethylsulfonamido)-5-(3-(4-(trifluoromethyl)phenyl)-[1,2,4]triazolo[4,3-b]pyridazin-6-yl)benzofuran-3-carboxamide] | 7.46 | 7.78
CNC(=O)c1c(-c2ccc(F)cc2)oc2cc(N(C)S(C)(=O)=O)c(-c3cn4c(-c5ccc(Cl)cc5)cnc4cn3)cc12 [Compound 93] | 7.32 | 8.10
CNC(=O)c1c(-c2ccc(F)cc2)oc2cc(N(C)S(C)(=O)=O)c(-c3ncc4ncn(-c5ccc(OC(F)(F)F)cc5)c4n3)cc12 [Compound 39, 2-(4-fluorophenyl)-N-methyl-6-(N-methylmethylsulfonamido)-5-(9-(4-(trifluoromethoxy)phenyl)-9H-purin-2-yl)benzofuran-3-carboxamide] | 5.74 | 7.08
CNC(=O)c1c(-c2ccc(F)cc2)oc2cc(N(C)S(C)(=O)=O)c(-c3cccc4c3ncn4-c3ccccc3)cc12 [Compound 38] | 6.20 | 6.81
CNC(=O)c1c(-c2ccc(F)cc2)oc2cc(N(C)S(C)(=O)=O)c(-c3ccc4oc(Cc5ccc(F)cc5)nc4n3)cc12 [Compound 84, 5-(2-(4-fluorobenzyl)oxazolo[4,5-b]pyridin-5-yl)-2-(4-fluorophenyl)-N-methyl-6-(N-methylmethylsulfonamido)benzofuran-3-carboxamide] | 7.27 | 8.07
CNC(=O)c1c(-c2ccc(F)cc2)oc2cc(N(C)S(C)(=O)=O)c(-c3ncc4ncn(-c5ccc(C#N)cc5)c4n3)cc12 [Compound 42] | 5.82 | 6.52
CNC(=O)c1c(-c2ccc(F)cc2)oc2cc(N(C)S(C)(=O)=O)c(-c3ccc4[nH]cc(-c5ccncc5)c4c3)cc12 [Compound 71] | 7.67 | 8.35
CNC(=O)c1c(-c2ccc(F)cc2)oc2cc(N(C)S(C)(=O)=O)c(-c3ccc4[nH]nc(-c5ccc(F)cc5)c4c3)cc12 [Compound 73, 2-(4-fluorophenyl)-5-(3-(4-fluorophenyl)-1H-indazol-5-yl)-N-methyl-6-(N-methylmethylsulfonamido)benzofuran-3-carboxamide] | 8.41 | 8.42
CNC(=O)c1c(-c2ccc(F)cc2)oc2cc(N(C)S(C)(=O)=O)c(-c3cc(F)c4ncn(-c5ccccc5)c4c3)cc12 [Compound 20] | 8.21 | 8.62
CNC(=O)c1c(-c2ccc(F)cc2)oc2cc(N(C)S(C)(=O)=O)c(-c3ccc4c(ccn4C(=O)OC(C)(C)C)c3)cc12 [Compound 104, tert-butyl 5-(2-(4-fluorophenyl)-3-(methylcarbamoyl)-6-(N-methylmethylsulfonamido)benzofuran-5-yl)-1H-indole-1-carboxylate] | 6.75 | 7.72
CNC(=O)c1c(-c2ccc(F)cc2)oc2cc(N(C)S(C)(=O)=O)c(-c3cc(F)c4ncn(-c5cc(F)cc(F)c5)c4c3)cc12 [Compound 30] | 8.20 | 8.55
CNC(=O)c1c(-c2ccc(F)cc2)oc2cc(N(C)S(C)(=O)=O)c(-c3cc(F)c4nc(N)n(-c5cc(F)cc(F)c5)c4c3)cc12 [Compound 79] | 7.50 | 8.51
CNC(=O)c1c(-c2ccc(F)cc2)oc2cc(N(C)S(C)(=O)=O)c(-c3ccc4ccn(-c5ccccc5)c4c3)cc12 [Compound 63] | 7.63 | 8.14
CNC(=O)c1c(-c2ccc(F)cc2)oc2cc(N(C)S(C)(=O)=O)c(-c3ccc4ncn(C5CCOCC5)c4c3)cc12 [Compound 26] | 7.19 | 7.92
CNC(=O)c1c(-c2ccc(F)cc2)oc2cc(N(C)S(C)(=O)=O)c(-c3cnc4ccn(-c5ccc(Cl)cc5)c4c3)cc12 [Compound 50] | 8.49 | 8.39
CNC(=O)c1c(-c2ccc(F)cc2)oc2cc(N(C)S(C)(=O)=O)c(-c3ccc4[nH]c(-c5ccccc5)nc4c3)cc12 [Compound 102] | 7.84 | 8.29
CNC(=O)c1c(-c2ccc(F)cc2)oc2cc(N(C)S(C)(=O)=O)c(-c3ccc4ccn(-c5ccc(F)cc5F)c4n3)cc12 [Compound 66] | 5.64 | 6.65
CNC(=O)c1c(-c2ccc(F)cc2)oc2cc(N(C)S(C)(=O)=O)c(-c3ccc4cnn(-c5ccc(C#N)cc5)c4c3)cc12 [Compound 108] | 7.56 | 7.91
CNC(=O)c1c(-c2ccc(F)cc2)oc2cc(N(C)S(C)(=O)=O)c(-c3ccc4ncc(-c5ccc(F)cc5)n4c3)cc12 [Compound 112, 2-(4-fluorophenyl)-5-(3-(4-fluorophenyl)imidazo[1,2-a]pyridin-6-yl)-N-methyl-6-(N-methylmethylsulfonamido)benzofuran-3-carboxamide] | 7.91 | 8.15
